According to US9120749B2, “Quinoline derivatives and MELK inhibitors containing the same” (ONCOTHERAPY SCIENCE, INC., priority 2010, dated 2015):
Counter-ions that a name gives are not always drawn. Like-named read-outs stand apart in the source and are kept apart here.

What was measured:
DU4475 = assay: Cell-based assay: anti-proliferative activity, Cell Counting Kit-8, 72 hours (DU4475); conditions: DU4475 cells
22Rv1 = assay: Cell-based assay: anti-proliferative activity, Cell Counting Kit-8, 72 hours (22Rv1); conditions: Homo sapiens; 22Rv1 cells
Procedure: Active candidate inhibitors against MELK were evaluated for their target-specific cytotoxicity using T47D, A549, BT-549, and HT-1197 cells was used for negative control. 100 micro-L of cell suspension was seeded onto 96-well microtiter plate (ViewPlate-96FTC, PerkinElmer). The initial cell concentration of T47D, A549, BT-549, and HT-1197 were 3,000 cells/well, 2,000 cells/well and 2,500 cells/well, respectively. Cellular growth was determined using Cell Counting Kit-8 (DOJINDO) at 72 hours after the exposure of the candidate inhibitors. […] Accurate IC50 values were calculated as described previously.

HT-1197 cells = assay: Cell-based assay: anti-proliferative activity, Cell Counting Kit-8, 72 hours (HT-1197, negative control without MELK expression); conditions: 72 hours
How it was run: (§1)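 T47D, A549 and BT-549 cells, with MELK-negative HT-1197 as control (MELK status checked by western blot), seeded at 2,000–3,000 cells/well. Growth measured by CCK-8 72 hours after inhibitor exposure; IC50 values calculated.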

A549 cells = assay: Cell-based assay: anti-proliferative activity, Cell Counting Kit-8, 72 hours (A549); conditions: 72 hours
How it was run: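 Cell Counting Kit-8 read-out of A549 growth after 72 hours of inhibitor exposure, cells plated in 96-well format. Values reported as IC50.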

T47D cells = assay: Cell-based assay: anti-proliferative activity, Cell Counting Kit-8, 72 hours (T47D)
How it was run: as §1

MELK = MELK (Homo sapiens, UniProt Q14680); assay: Kinase assay: MELK activity, phosphorylation of FITC-labeled histone H3 peptide measured by IMAP fluorescence polarization; type: biochemical; conditions: read-out: IC50 (μM) (kinase assay)
How it was run: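 A FITC-labelled histone H3 peptide served as substrate, with compounds serially diluted to 1% DMSO final. Reactions were stopped with three volumes of IMAP progressive binding solution. After 0.5 h at room temperature, fluorescence polarization was read.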

DU4475 cells = assay: Cell-based assay: anti-proliferative activity, Cell Counting Kit-8, 72 hours (DU4475)
22Rv1 cells = assay: Cell-based assay: anti-proliferative activity, Cell Counting Kit-8, 72 hours (22Rv1); conditions: Homo sapiens
[1] = HT1197 cells (negative control, no MELK expression), hydrochloride
[2] = HT1197 cells (negative control, no MELK expression)
[3] = HT1197 cells (negative control), hydrochloride

MELK, sequence (Q14680 whole entry, looked up): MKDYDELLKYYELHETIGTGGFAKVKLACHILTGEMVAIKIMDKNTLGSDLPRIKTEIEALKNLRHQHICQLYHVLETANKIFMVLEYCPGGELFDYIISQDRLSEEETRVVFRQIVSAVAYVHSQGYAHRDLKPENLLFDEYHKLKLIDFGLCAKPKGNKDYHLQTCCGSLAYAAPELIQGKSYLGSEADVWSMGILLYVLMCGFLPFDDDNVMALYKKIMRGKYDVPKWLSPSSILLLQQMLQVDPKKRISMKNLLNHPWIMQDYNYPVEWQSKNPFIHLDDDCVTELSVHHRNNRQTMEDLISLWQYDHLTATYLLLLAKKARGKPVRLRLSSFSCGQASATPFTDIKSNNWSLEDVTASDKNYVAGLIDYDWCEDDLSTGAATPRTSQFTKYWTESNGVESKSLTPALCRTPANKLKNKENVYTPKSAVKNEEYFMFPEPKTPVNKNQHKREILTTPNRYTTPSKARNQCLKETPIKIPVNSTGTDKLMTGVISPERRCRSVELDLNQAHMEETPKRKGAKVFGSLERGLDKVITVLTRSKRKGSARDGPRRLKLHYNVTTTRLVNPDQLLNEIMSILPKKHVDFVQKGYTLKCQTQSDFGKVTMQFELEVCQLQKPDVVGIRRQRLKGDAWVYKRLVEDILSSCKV

| SMILES | IC50 (22Rv1) | IC50 (A549 cells; hydrochloride) | IC50 (T47D cells; 72 hours, hydrochloride) | IC50 (MELK; hydrochloride) | IC50 (A549 cells) | IC50 (T47D cells; 72 hours) | IC50 (MELK) | IC50 (DU4475 cells; hydrochloride) | IC50 (HT-1197 cells; [3]) | IC50 (22Rv1 cells) | further results |
| --- | --- | --- | --- | --- | --- | --- | --- | --- | --- | --- | --- |
| NCc1ccc(Nc2c(C(=O)C3CC3)cnc3ccc(-c4cc(F)c(O)c(Cl)c4)cc23)cc1 [Example 505, (4-(4-(aminomethyl)phenylamino)-6-(3-chloro-5-fluoro-4-hydroxyphenyl)quinolin-3-yl)(cyclopropyl)methanone hydrochloride] | 0.088 µM | 0.067 µM | 0.063 µM | 0.0027 µM |  |  |  |  |  |  | IC50 (DU4475; hydrochloride): 0.026 µM; IC50 (HT-1197 cells; [1]): 0.4 µM |
| NCc1ccc(Nc2c(C(=O)C3CC3)cnc3ccc(-c4cc(Cl)c(O)c(Cl)c4)cc23)cc1 [Example 508, (4-(4-(aminomethyl)phenylamino)-6-(3,5-dichloro-4-hydroxyphenyl)quinolin-3-yl)(cyclopropyl)methanone hydrochloride] | 0.099 µM | 0.067 µM | 0.078 µM | 0.0017 µM |  |  |  |  |  |  | IC50 (DU4475; hydrochloride): 0.02 µM; IC50 (HT-1197 cells; [1]): 0.49 µM |
| CC(=O)c1cnc2ccc(-c3cc(F)c(O)c(Cl)c3)cc2c1Nc1ccc(N2CCN(C)CC2)nc1 [Example 488, 1-(6-(3-chloro-5-fluoro-4-hydroxyphenyl)-4-(6-(4-methylpiperazin-1-yl)pyridin-3-ylamino)quinolin-3-yl)ethanone] | 0.38 µM |  |  |  | 0.2 µM | 0.084 µM | 0.0041 µM |  |  |  | IC50 (DU4475): 0.14 µM; IC50 (HT-1197 cells; [2]): 2.1 µM |
| O=C(c1cnc2ccc(-c3cc(Cl)c(O)c(Cl)c3)cc2c1N[C@H]1CC[C@H](CN2CCCC2)CC1)C1CC1 [Example 585, cyclopropyl(6-(3,5-dichloro-4-hydroxyphenyl)-4-(1R,4R)-4-(pyrrolidin-1-ylmethyl)cyclohexylamino)quinolin-3-yl)methanone hydrochloride] |  | 0.073 µM | 0.12 µM |  |  |  |  | 0.043 µM | 0.78 µM | 0.1 µM |  |
| CN[C@H]1CC[C@H](Nc2c(C(=O)C3CC3)cnc3ccc(-c4cc(Cl)c(O)c(OC)c4)cc23)CC1 [Example 517, {6-(3-Chloro-4-hydroxy-5-methoxyphenyl)-4-[trans-4-(methylamino)cyclohexylamino]quinolin-3-yl}(cyclopropyl)methanone] |  |  |  |  |  |  | 0.0014 µM |  |  | 0.18 µM | IC50 (DU4475 cells; Homo sapiens, DU-4475, 72 h): 0.048 µM; IC50 (HT-1197 cells; Homo sapiens, HT1197, 72 h, HT1197 cells (negative control)): 0.38 µM; IC50 (A549 cells; Homo sapiens, A549, 72 h): 0.072 µM; IC50 (T47D cells; Homo sapiens, T47D, 72 h): 0.067 µM |
| CN(C)C[C@H]1CC[C@H](Nc2c(S(C)(=O)=O)cnc3ccc(-c4cc(Cl)c(O)c(Cl)c4)cc23)CC1 [Example 421] | 0.64 µM |  |  |  | 0.68 µM | 0.47 µM |  |  |  |  | IC50 (DU4475): 0.086 µM; IC50 (HT-1197 cells; [2]): 2.1 µM; IC50 (MELK; 50 micro-M ATP, FITC-labeled histone H3 peptide substrate, IMAP fluorescence polarization): 0.0017 µM |
| CN(C)CCc1ccc(Nc2c(C(=O)C3CC3)cnc3ccc(-c4cc(Cl)c(O)c(Cl)c4)cc23)cc1 [Example 614, cyclopropyl(6-(3,5-dichloro-4-hydroxyphenyl)-4-(4-(2-(dimethylamino)ethyl)phenylamino)quinolin-3-yl)methanone hydrochloride] |  |  | 0.12 µM | 0.0016 µM |  |  |  | 0.024 µM | 1.6 µM | 0.12 µM |  |
| O=C(c1cnc2ccc(-c3cc(F)c(O)c(Cl)c3)cc2c1N[C@H]1CC[C@H](CN2CCCC2)CC1)C1CC1 [Example 588, (6-(3-chloro-5-fluoro-4-hydroxyphenyl)-4-(1R,4R)-4-(pyrrolidin-1-ylmethyl)cyclohexylamino)quinolin-3-yl)(cyclopropyl)methanone hydrochloride] |  | 0.096 µM | 0.091 µM | 0.0037 µM |  |  |  | 0.063 µM | 0.46 µM | 0.16 µM |  |
| CC(C)(N)c1ccc(Nc2c(C(=O)C3CC3)cnc3ccc(-c4cc(Cl)c(O)c(Cl)c4)cc23)cc1 [Example 602, {4-[4-(2-Aminopropan-2-yl)phenylamino]-6-(3,5-dichloro-4-hydroxyphenyl)quinolin-3-yl}(cyclopropyl)methanone] |  |  |  |  | 0.074 µM | 0.13 µM | 0.0011 µM |  |  | 0.082 µM | IC50 (DU4475 cells): 0.038 µM; IC50 (HT-1197 cells; HT1197 cells (negative control)): 0.73 µM |
